Laboratory results as given in patent US20240108607A1, “METHOD FOR MANUFACTURING NOVEL NITROGEN-CONTAINING COMPOUND OR SALT THEREOF AND MANUFACTURING INTERMEDIATE OF NOVEL NITROGEN-CONTAINING COMPOUND OR SALT THEREOF” (FUJIFILM Corporation, priority 2015, published 2024).

Assays:
[1] = target: integrin αvβ5 (Homo sapiens, UniProt P06756+P18084); assay: Integrin αvβ5 binding affinity test (biotinylated vitronectin competition on immobilized integrin); conditions: inhibition of biotinylated vitronectin binding
Description: Test Example 2 Integrin […] Binding Affinity Test
(§1) 0.2 μg/mL of δvβ5 was immobilized in a 96-well plates (Corning Incorporated) and then blocked using a 1% Block Ace (DS Pharma Biomedical Co., Ltd.) solution, and then the plate was washed with PBST (10 mM Na2HPO4 pH 7.5, 150 mM NaCl, 0.01% Tween 20). A 2× concentrated evaluation compound solution (10× concentration of 3.16× dilution from 0.3 mol/L, buffer (20 mM Tris-HCl pH 7.5, 150 mM NaCl, 1 mM CaCl2), 1 mM MgCl2, 1 mM MnCl2)) and a 4 μg/mL biotinylated vitronectin solution (labeling vitronectin (Upstate Biotechnology Inc.) by using EZ-Link Sulfo-NHS-Biotinylation Kit (Pierce Protein Biology) and then adjusting concentration) were each added to the plate in an amount of 50 μL, and the plate was shaken for 2 hours at room temperature. The plate was washed with PBST, a 0.2 g/mL avidin-peroxidase (Pierce Protein Biology) was added thereto, and the plate was shaken for 1 hour at room temperature. The plate was washed with PBST, an o-phenylenediamine (Sigma-Aldrich Co., LLC.) solution was added thereto such that color was produced (stopped using 4 mol/L sulfuric acid), and the absorbance (490 nm, Reference: 595 nm) was measured. The IC50 value was calculated using XLfit 3.0 (ID Business Solutions Ltd.). For each plate, as a QC sample, RGDfV (Bachem AG) was measured in duplicate. […]

[2] = target: integrin αvβ3 (Homo sapiens, UniProt P05106+P06756); assay: Integrin αvβ3 binding affinity test (biotinylated vitronectin competition on immobilized integrin); conditions: inhibition of biotinylated vitronectin binding
Description: Test Example 1 Integrin […] Binding Affinity Test
as §1, with “[…]” for “δvβ5”, “T-PBS (PBS containing 0.05%” for “PBST (10 mM Na2HPO4 pH 7.5, 150 mM NaCl, 0.01%”, “μmol/L,” for “mol/L,”, “T-PBS,” for “PBST,”, “μg/mL avidin·peroxidase” for “g/mL avidin-peroxidase”

[3] = Radiochemical purity after standing at room temperature (reversed-phase TLC); format: physicochemical; conditions: 22 hours
Description: A indium [^111In] chloride solution (80 MBq, 100 μL) was added to a mixture of the compound A (8.5 μg) and a 0.2 mol/L sodium acetate buffer solution (pH 4.0) (1.5 mL). The solution was heated to 100° C. for 15 minutes and then left to stand for 5 minutes at room temperature, thereby obtaining [^111In]-(compound A). […] The radiochemical purity measured immediately after the compound was prepared and measured after 24 hours at room temperature was equal to or higher than 95%.
A yttrium [^90Y] chloride solution (700 MBq, 240 μL) was added to a mixture of the compound (79 μg), gentisic acid (1.8 mg), a 0.6 mol/L sodium acetate buffer solution (pH 4.0, 120 μL), and 0.4 mol/L aqueous sodium hydroxide solution (24 μL). The solution was heated to 100° C. for 20 minutes and then left to stand for 5 minutes at room temperature, thereby obtaining [90^Y]-(compound A). […] The radiochemical purity measured immediately after the compound was prepared and measured after 24 hours at room temperature was equal to or higher than 95%.
A copper [^64Cu] chloride solution (pH 5, 35 MBq, 55 μL) was added to a mixture of the compound A (5.8 μg) and 0.2 mol/L sodium acetate buffer solution (pH 4.0, 219 μL). The solution was heated to 100° C. for 15 minutes and left to stand for 5 minute at room temperature, thereby obtaining [^64Cu]-(compound A). […] The radiochemical purity measured immediately after the compound was prepared and measured after 22 hours at room temperature was equal to or higher than 90%.
A 0.2 mol/L sodium acetate buffer solution of Copper [^64Cu] chloride (pH 4.0) (40 MBq, 155 μL) was added to a mixture of the compound B (4.2 μg), gentisic acid (1 mg), and a 0.2 mol/L sodium acetate buffer solution (pH 4.0) (5.0 μL). The solution was heated to 100° C. for 15 minutes and left to stand for 5 minutes at room temperature, thereby obtaining [^64Cu]-(compound B). […] The radiochemical purity measured immediately after the compound was prepared and measured after 24 hours at room temperature was equal to or higher than 90%.
(§2) A gallium [^67Ga] chloride solution (200 MBq, 63 μL) was added to a mixed solution of the compound A (21 μg), gentisic acid (1.0 mg), a 0.2 mol/L sodium acetate buffer solution (pH 4.0, 730.7 μL), and 4.5 mol/L aqueous sodium hydroxide solution (6.3 μL). The solution was heated to 100° C. for 15 minutes and then left to stand for 5 minutes at room temperature, thereby obtaining [^67Ga]-(compound A).
A lutetium [^177Lu] chloride solution (666 MBq, 333 μL) dissolved in a 0.2 mol/L sodium acetate buffer solution (pH 4.0) was added to a mixed solution of the compound A (70.0 μg), gentisic acid (1.8 mg), and a 0.2 mol/L sodium acetate buffer solution (pH 4.0, 83.3 μL). The solution was heated to 100° C. for 15 minutes and then left to stand for 5 minutes at room temperature, thereby obtaining [^177Lu]-(compound A).
as §2, with “(40” for “(200”, “11.7” for “63”, “B (4.1” for “A (21”, “4.5, 147.13” for “4.0, 730.7”, “(1.17” for “(6.3”, “B).” for “A).”

[4] = Absorbed dose in a human being simulated with OLINDA/EXM 1.0 from monkey organ distribution
Description: Blood was collected from a crab-eating macaque over time, and by using [^111In]-(compound A), from the radioactivity concentration in the blood, kinetic parameters of the compound in blood were calculated by OLINDA/EXM 1.0. Furthermore, by using [^111In]-(compound A), from the organ distribution obtained by imaging, the absorbed dose of each organ obtained in a case where the compound is administered to a human being was calculated using OLINDA/EXM 1.0. [^111In]-(compound A) (98 MBq/9.3 μg) was administered to a crab-eating macaque (Hamri Co., Ltd., males, 3-year-old, 3.4 kg) under anesthesia. After the administration, blood was collected over time, and imaging was performed using a gamma camera. The blood was collected 10, 30, and 60 minutes after the administration and 2, 4, 5, 6, 24, 48, 72, and 144 hours after the administration. Regarding the imaging, after 1, 2, 4, 6, 24, 48, 72, and 144 hours, planar imaging was performed using a gamma camera (Symbia, Siemens Healthcare GmbH). Regarding the anesthesia, the animal was anesthetized with ketamine at 20 mg/kg before the administration of [^111In]-(compound A) and kept anesthetized until the end of imaging, which was continued for 6 hours after the administration, by inhalation anesthesia (isofluran 2 to 3%, 5 to 8 L/min). After 24 hours, ketamine (20 mg/kg) and xylazine (2 mg/kg) were administered to perform blood collection and imaging.
Furthermore, by using exposure dose analysis software OLINDA/EXM 1.0, the absorbed dose in a human being was simulated using each of the labeled compounds, and the results are shown below.

[5] = test system: U87MG cells; assay: Radioactivity concentration of labeled compounds in tumor, U87MG subcutaneous transplantation; format: in vivo, mice (Balb/c AJcl-nu/nu); conditions: caudal vein, 111In 740 kBq, 64Cu and 90Y 500 kBq
Description: Test Example 3 Evaluation based on radioactivity concentration of ^111In-labeled compound, ^64Cu-labeled compound, and ^90Y-labeled compound in tumor
After 2 to 3 weeks, at a point in time when the tumor volume became 200 to 500 mm^3, 3 mice were sorted into one group at each point in time. The ^111In-labeled compound (740 k Bq) was administered into the caudal vein, the animals were sacrificed after a certain period of time, and the tumor was extracted. The weight of the tumor was measured, the radioactivity was measured using a gamma counter, and the radioactivity concentration in tumor (% ID/g) was calculated. For the ^64Cu-labeled compound (500 k Bq) and the ^90Y-labeled compound (500 k Bq), the radioactivity concentration in tumor (% ID/g) was calculated by the same method.

[6] = test system: U87MG cells; assay: Imaging of integrin expression tumor by PET; format: in vivo, mice (Balb/c AJcl-nu/nu); conditions: 48 hours after administration, 4.8 MBq/mouse caudal vein
Description: Test Example 4 Imaging of Integrin Expression Tumor by Positron Emission Tomography (PET) Using [^64Cu]-(Compound A) and [^64Cu]-(Compound B)
After 2 weeks, [^64Cu]-(compound A) was administered at 4.8 MBq/mouse into the caudal vein of the mice with a tumor having a volume of […] to 650 mm^3. After 1, 4, 24, and 48 hours, the mice were imaged by microPET/CT (Inveon, Siemens Healthcare GmbH) under isoflurane anesthesia. […], whole blood was collected from the postcava under deep isoflurane anesthesia, the animals were euthanised, and then the tumor was extracted. The weight of the tumor was measured, the radioactivity was measured using a gamma counter, and the radioactivity concentration in tumor (% ID/g) was calculated. For [^64Cu]-(compound B), imaging was performed by the same method.
FIGS. 1 and 2 show PET images relating to each compound captured at each point in time. […] As a result, a hematoma matching with the image was found in the central portion. At the time of dissection (48 hours after administration), the radioactivity concentration in tumor was 5.6% ID/g.

Row | Compound | IC50 [1] [nM] | IC50 [2] [nM] | radiochemical purity immediately after preparation and after 22 hours at room temperature [3] [%] | Absorbed dose Brain [4] [mGy/MBq] | Absorbed dose Kidney [4] [mGy/MBq] | Absorbed dose Liver [4] [mGy/MBq] | Absorbed dose Lung [4] [mGy/MBq] | Absorbed dose Red marrow [4] [mGy/MBq] | Absorbed dose Small intestine [4] [mGy/MBq] | Absorbed dose Whole body [4] [mGy/MBq] | Radioactivity concentration in tumor After 4 hours ([5]; 4 hours) [% ID/g] | Radioactivity concentration in tumor After 24 hours ([5]; 24 hours) [% ID/g] | radioactivity concentration in tumor at the time of dissection [6] [% ID/g]
1 | Cc1cc(OCCCC(=O)NCCNC(=O)[C@H](CS(=O)(=O)O)NC(=O)CN2CCN(CC(=O)O)CCN(CC(=O)O)CCN(CC(=O)O)CC2)cc(C)c1S(=O)(=O)N[C@@H](CNC(=O)CCCCc1ccc2c(n1)NCCC2)C(=O)O [Compound A, 2,2′,2″-(10-(2-(((R)-1-((2-(4-(4-(N—((S)-1-carboxy-2-(5-(5,6,7,8-tetrahydro-1,8-naphthyridin-2-yl)pentanamide)ethyl)sulfamoyl)-3,5-dimethylphenoxy)butanamide)ethyl)amino)-1-oxo-3-sulfopropan-2-yl)amino)-2-oxoethyl)-1,4,7,10-tetraazacyclododecane-1,4,7-triyl)triacetic acid] | < 1 | < 1 | – | – | – | – | – | – | – | – | – | – | –
2 | Cc1cc(OCCCC(=O)NCCNC(=O)[C@H](CS(=O)(=O)O)NC(=O)CC[C@H](C(=O)O)N2CCN(CC(=O)O)CCN(CC(=O)O)CC2)cc(C)c1S(=O)(=O)N[C@@H](CNC(=O)CCCCc1ccc2c(n1)NCCC2)C(=O)O [Compound B, 2,2′-(7-((R)-1-carboxy-4-(((R)-1-((2-(4-(4-(N—((S)-1-carboxy-2-(5-(5,6,7,8-tetrahydro-1,8-naphthyridin-2-yl)pentanamide)ethyl)sulfamoyl)-3,5-dimethylphenoxy)butanamide)ethyl)amino)-1-oxo-3-sulfopropan-2-yl)amino)-4-oxobutyl)-1,4,7-triazonane-1,4-diyl)diacetic acid] | < 1 | < 1 | – | – | – | – | – | – | – | – | – | – | –
3 | Cc1cc(OCCCC(=O)NCCNC(=O)C(CS(=O)(=O)O)NC(=O)CN2CCN(CC(=O)[O-])CCN(CC(=O)O)CCN(CC(=O)[O-])CC2)cc(C)c1S(=O)(=O)NC(CNC(=O)CCCCc1ccc2c(n1)NCCC2)C(=O)O.[64Cu+2] (stereo not drawn) [[^64Cu]-(compound A)] | – | – | ≥ 90 | 0.11 | 0.69 | 0.09 | 0.08 | 0.01 | 0.06 | 0.02 | 9.25 | 8.48 | 5.6
